Assay results published in patent US8846711B2, “Heterocyclic acrylamides and their use as pharmaceuticals” (Fab Pharma S.A.S., priority 2009, dated 2014).
≈ marks a conversion by molar mass, not a printed value.

What was measured:
[1] = target: recombinant S. aureus FabI enzyme (Staphylococcus aureus (strain MRSA252), UniProt Q6GI75); experiment: FabI inhibition, fluorescence based assay; format: biochemical; settings: in vitro
Protocol: Compound inhibitory activity of FabI enzyme is measured in vitro by the […] determination using a fluorescence based assay.
The protein FabI from S. aureus is prepared and purified using standard methods for recombinant protein expression after cloning of the gene in a prokaryotic expression vector.
The biochemical activity of the FabI enzyme is assessed using the following method.
The assay buffer “AB” contained 50 mM ADA (N-(2-acetamido)iminodiacetic acid monosodium salt) pH 6.5, 1 mM dithiothreitol, 0.006% Triton-X100 and 50 mM NaCl.
The following components are added in a white polystyrene Costar plate (Ref 3912) up to a final volume of 55.5 μL: 1.5 μL DMSO or inhibitor dissolved in DMSO and 54 μL of a FabI/NADPH/NADP+ mixture in AB. After 60 min of pre-incubation at room temperature, the reaction is started by addition of 5 μL of trans-2-octenoyl N-acetylcysteamine thioester (t-o-NAC) to a final volume of 60.5 μL. This reaction mixture is then composed of 2 nM FabI, 40 μM NADPH (Sigma, N7505), 10 μM NADP+ (Sigma, N5755), 100 μM t-O-NAC and compound at defined concentration. Fluorescence intensity of NADPH (λex=360 nm, […]) is measured immediately after t-O-NAC addition (T0), and approximately 50 min later (T50) by a Fluostar Optima (BMG) so as to achieve ±30% of NADPH conversion. Enzyme activity is calculated by first subtracting TO signal to T50 and then subtracting background signal (FabI=0). Percentages of inhibition are calculated against untreated samples (Inhibitor=0) and IC50 are fitted to a classical Langmuir equilibrium model using XLFIT (IDBS).

C. albicans (ATCC 90028) = experiment: MIC determination using susceptibility method (broth microdilution); format: cell-based; settings: Candida albicans, ATCC90028, read-out: MIC (μg/ml) C. albicans (ATCC 90028)
Protocol: (§1) Minimum inhibitory concentrations (MICs) were determined by broth microdilution according to CLSI guidelines (CLSI, M100-20^1, M7-A8^2, M27-A3^3). The compounds were tested in the range from […]. Colonies were taken directly from a second-pass culture plate and prepared to a suspension equivalent to the 0.5 McFarland standard using normal saline. […] The panels were incubated at 35° C. for 16 to 20 hours before reading the MIC endpoints. The compounds of Examples 12, 29, 59, 63 and 66-71 were dissolved in DMSO to make the initial solutions of 5120 μg/ml. These solutions were diluted 1:10 in sterile water to a stock solution of 512 μg/ml. The stock solutions were further diluted into the appropriate broth medium for the sequential dilutions used in the broth microdilution panels. S. pneumoniae was tested in Mueller Hinton (MH) broth with 3% lysed horse blood and C. albicans was tested in RPMI-1640 medium. All other organisms were tested in MH broth.

E. coli (ATCC 25922) = experiment: as above; format: cell-based; settings: Escherichia coli, ATCC25922, read-out: MIC (μg/ml) E. coli (ATCC 25922)
Protocol: as §1

E. faecalis (ATCC 29212) = experiment: as above; format: cell-based; settings: Enterococcus faecalis, ATCC29212, read-out: MIC (μg/ml) E. faecalis (ATCC 29212)
Protocol: as §1

MRSA (IHMA #510059) = experiment: as above; format: cell-based; settings: Staphylococcus aureus, read-out: MIC (μg/ml) MRSA (IHMA #510059)
Protocol: as §1

MSSA (IHMA #555189) = experiment: as above; format: cell-based; settings: Staphylococcus aureus, read-out: MIC (μg/ml) MSSA (IHMA #555189)
Protocol: as §1

S. aureus ATCC 29213 = experiment: as above; format: cell-based; settings: Staphylococcus aureus, ATCC29213, read-out: MIC (μg/ml) S. aureus ATCC 29213
Protocol: as §1

[2] = system: S. pneumoniae (ATCC 49619); experiment: as above; format: cell-based; settings: Streptococcus pneumoniae, ATCC49619, read-out: MIC (μg/ml) S. pneumoniae (ATCC 49619)
Protocol: as §1

Structure (SMILES) | IC50 [1] [µM] | other results
CC(Cc1ncccn1)=NOC1CN(C(=O)/C=C/c2cnc3c(c2)CCC(=O)N3)C1 (racemic) [Example 21, 6-{(1E)-3-[3-({[(1E)-1-Methyl-2-pyrimidin-2-ylethylidene]amino}oxy)azetidin-1-yl]-3-oxoprop-1-en-1-yl}-3,4-dihydro-1,8-naphthyridin-2(1H)-one] | 0.87 | 
O=C1CCc2cc(/C=C/C(=O)N3CCC3)cnc2N1 [Example 1, 6-[(1E)-3-Azetidin-1-yl-3-oxoprop-1-en-1-yl]-3,4-dihydro-1,8-naphthyridin-2(1H)-one] | 11 | 
O=C1CCc2cc(/C=C/C(=O)N3CCCC3)cnc2N1 [Example 2, 6-[(1E)-3-Oxo-3-pyrrolidin-1-ylprop-1-en-1-yl]-3,4-dihydro-1,8-naphthyridin-2(1H)-one] | 5.5 | 
O=C1CCc2cc(/C=C/C(=O)N3CCCCC3)cnc2N1 [Example 3, 6-[(1E)-3-Oxo-3-piperidin-1-ylprop-1-en-1-yl]-3,4-dihydro-1,8-naphthyridin-2(1H)-one] | 9.9 | 
O=C1CCc2cc(/C=C/C(=O)N3CCC(CCO)CC3)cnc2N1 [Example 4, 6-{(1E)-3-[4-(2-Hydroxyethyl)piperidin-1-yl]-3-oxoprop-1-en-1-yl}-3,4-dihydro-1,8-naphthyridin-2(1H)-one] | 5.3 | 
O=C1CCc2cc(/C=C/C(=O)N3CCC(COc4ccc(F)cc4)CC3)cnc2N1 [Example 5, 6-[(1E)-3-{[4-(4-Fluorophenoxy)methyl]piperidin-1-yl}-3-oxoprop-1-en-1-yl]-3,4-dihydro-1,8-naphthyridin-2(1H)-one] | 0.25 | 
O=C1CCc2cc(/C=C/C(=O)N3CC(Oc4ccccc4)C3)cnc2N1 [Example 6, 6-[(1E)-3-Oxo-3-(3-phenoxyazetidin-1-yl)prop-1-en-1-yl]-3,4-dihydro-1,8-naphthyridin-2(1H)-one] | 1 | 
O=C1CCc2cc(/C=C/C(=O)N3CCCC3c3ccccc3)cnc2N1 (stereo not shown) [Example 7, 6-[(1E)-3-Oxo-3-(2-phenylpyrrolidin-1-yl)prop-1-en-1-yl]-3,4-dihydro-1,8-naphthyridin-2(1H)-one] | 7.1 | 
O=C1CCc2cc(/C=C/C(=O)N3CCCC(COc4ccc(F)cc4)C3)cnc2N1 (stereo not shown) [Example 9, 6-[(1E)-3-{[3-(4-Fluorophenoxy)methyl]piperidin-1-yl}-3-oxoprop-1-en-1-yl]-3,4-dihydro-1,8-naphthyridin-2(1H)-one] | 1.3 | 
Cc1nc(C2CN(C(=O)/C=C/c3cnc4c(c3)CCC(=O)N4)C2)no1 [Example 11, 6-{(1E)-3-[3-(5-Methyl-1,2,4-oxadiazol-3-yl)azetidin-1-yl]-3-oxoprop-1-en-1-yl}-3,4-dihydro-1,8-naphthyridin-2(1H)-one] | 0.15 | 
Cc1nc(C2CCCCN2C(=O)/C=C/c2cnc3c(c2)CCC(=O)N3)no1 (stereo not shown) [Example 13, 6-{(1E)-3-[2-(5-Methyl-1,2,4-oxadiazol-3-yl)piperidin-1-yl]-3-oxoprop-1-en-1-yl}-3,4-dihydro-1,8-naphthyridin-2(1H)-one] | 4.1 | 
O=C1CCc2cc(/C=C/C(=O)N3CCC(O)(c4ccccc4)CC3)cnc2N1 [Example 14, 6-{(1E)-3-[4-Hydroxy-4-phenylpiperidin-1-yl]-3-oxoprop-1-en-1-yl}-3,4-dihydro-1,8-naphthyridin-2(1H)-one] | 0.34 | 
O=C1CCc2cc(/C=C/C(=O)N3CCC(Oc4cccnc4)C3)cnc2N1 (stereo not shown) [Example 16, 6-{(1E)-3-Oxo-3-[3-(pyridin-3-yloxy)pyrrolidin-1-yl]prop-1-en-1-yl}-3,4-dihydro-1,8-naphthyridin-2(1H)-one] | 0.93 | 
O=C1CCc2cc(/C=C/C(=O)N3CC(OCc4ccccc4)C3)cnc2N1 [Example 17, 6-{(1E)-3-[3-(Benzyloxy)azetidin-1-yl]-3-oxoprop-1-en-1-yl}-3,4-dihydro-1,8-naphthyridin-2(1H)-one] | 0.05 | 
O=C1CCc2cc(/C=C/C(=O)N3CCCC[C@@H]3c3nc4ccccc4o3)cnc2N1 [Example 18, 6-{(1E)-3-[2-(1,3-Benzoxazol-2-yl)piperidin-1-yl]-3-oxoprop-1-en-1-yl}-3,4-dihydro-1,8-naphthyridin-2(1H)-one] | 1.8 | 
C=C(C)COC1CN(C(=O)/C=C/c2cnc3c(c2)CCC(=O)N3)C1 [Example 19, 6-[(1E)-3-{3-[(2-Methylprop-2-en-1-yl)oxy]azetidin-1-yl}-3-oxoprop-1-en-1-yl]-3,4-dihydro-1,8-naphthyridin-2(1H)-one] | 0.17 | 
O=C1CCc2cc(/C=C/C(=O)N3CC(OCc4nccs4)C3)cnc2N1 [Example 20, 6-{(1E)-3-Oxo-3-[3-(1,3-thiazol-2-ylmethoxy)azetidin-1-yl]prop-1-en-1-yl}-3,4-dihydro-1,8-naphthyridin-2(1H)-one] | 0.057 | 
CCCCCS(=O)(=O)C1CN(C(=O)/C=C/c2cnc3c(c2)CCC(=O)N3)C1 [Example 22, 6-{(1E)-3-[3-(Pentylsulfonyl)azetidin-1-yl]-3-oxoprop-1-en-1-yl}-3,4-dihydro-1,8-naphthyridin-2(1H)-one] | 8.6 | 
Nc1ccc(/C=C/C(=O)N2CC(OCc3ccncc3)C2)cn1 [Example 23, 5-{(1E)-3-Oxo-3-[3-(pyridin-4-ylmethoxy)azetidin-1-yl]prop-1-en-1-yl}pyridin-2-amine] | 1.8 | 
CC(=O)Nc1ccc(/C=C/C(=O)N2CC(OCc3ccncc3)C2)cn1 [Example 24, N-(5-{(1E)-3-Oxo-3-[3-(pyridin-4-ylmethoxy)azetidin-1-yl]prop-1-en-1-yl}pyridin-2-yl)acetamide] | 0.26 | 
COC(=O)C1Cc2cc(/C=C/C(=O)N3CCC(COc4ccc(F)cc4)CC3)cnc2NC1=O (stereo not shown) [Example 25, Methyl 6-[(1E)-3-{4-[(4-fluorophenoxy)methyl]piperidin-1-yl}-3-oxoprop-1-en-1-yl]-2-oxo-1,2,3,4-tetrahydro-1,8-naphthyridine-3-carboxylate] | 0.06 | 
NC(=O)C1Cc2cc(/C=C/C(=O)N3CCC(COc4ccc(F)cc4)CC3)cnc2NC1=O (stereo not shown) [Example 26, 6-[(1E)-3-{4-[(4-Fluorophenoxy)methyl]piperidin-1-yl}-3-oxoprop-1-en-1-yl]-2-oxo-1,2,3,4-tetrahydro-1,8-naphthyridine-3-carboxamide] | 0.078 | 
NC(=O)c1cc2cc(/C=C/C(=O)N3CCC(COc4ccc(F)cc4)CC3)cnc2[nH]c1=O [Example 27, 6-[(1E)-3-{4-[(4-Fluorophenoxy)methyl]piperidin-1-yl}-3-oxoprop-1-en-1-yl]-2-oxo-1,2-dihydro-1,8-naphthyridine-3-carboxamide] | 0.55 | 
O=C1Nc2ncc(/C=C/C(=O)N3CCC(COc4ccc(F)cc4)CC3)cc2CC1CO (stereo not shown) [Example 28, 3-(Hydroxymethyl)-6-[(1E)-3-{4-[(4-fluorophenoxy)methyl]piperidin-1-yl}-3-oxoprop-1-en-1-yl]-3,4-dihydro-1,8-naphthyridin-2(1H)-one] | 0.081 | 
CN1CCC2(CC1)Cc1cc(/C=C/C(=O)N3CC(OCCc4cccs4)C3)cnc1NC2=O [Example 66, (E)-1′-Methyl-6-(3-oxo-3-(3-(2-(thiophen-2-yl)ethoxy)azetidin-1-yl)prop-1-en-1-yl)-1H-spiro[[1,8]naphthyridine-3,4′-piperidin]-2(4H)-one] |  | MIC (C. albicans (ATCC 90028)): 64 µg/mL (≈ 137 µM); MIC (E. coli (ATCC 25922)): 64 µg/mL (≈ 137 µM); MIC (E. faecalis (ATCC 29212)): 64 µg/mL (≈ 137 µM); MIC (MRSA (IHMA #510059)): 0.5 µg/mL (≈ 1.07 µM); MIC (MSSA (IHMA #555189)): 0.25 µg/mL (≈ 0.536 µM); MIC (S. aureus ATCC 29213): 0.25 µg/mL (≈ 0.536 µM); MIC [2]: 64 µg/mL (≈ 137 µM)
